Results on four compounds are retold here after US20240226104A1, “PI3K INHIBITORS, NANOFORMULATIONS, AND USES THEREOF” (THE REGENTS OF THE UNIVERSITY OF MICHIGAN, priority 2021, published 2024).

For this test, the system named is 3D multicellular tumor spheroids (4T1 cells and M2 macrophages derived from RAW264.7 cells). Nature of the test: 3D multicellular tumor spheroids (MCTs) growth. The following applies: single drug 5 μM; combination 2.5 μM plus 2.5 μM; 14 days. In kind it is cell-based. The method, then: 3D multicellular tumor spheroids (MICs), 4T1 cells and M2 macrophages derived from RAW264.7 cells were mixed in the ratio of 7:3 and then seeded into an ultralow-attachment 96 well plate (Corning) at a density of 5,000 cells/well and cultured for 30 h to form the tumor spheroids. These tumor spheroids were separately incubated with 300 μL complete medium supplemented with PTX ([…]), gemcitabine (5 μM), doxorubicin (5 μM), and IPI-549 (5 μM) as well as the combination of IPI-549 and PTX (2.5 μM+[…]), IPI-549 and gemcitabine (2.5 μM+2.5 μM), and IPI-549 and doxorubicin (2.5 μM+2.5 μM) for 14 days. The volumes ([major axis]×[minor axis]^2/2) of the MTCs were monitored every other day using an Olympus IX83 motorized inverted microscope with cellSens Dimension software (Olympus), and images were captured using a CellInsight CX5 High-Content Screening (HCS) Platform (Thermo Fisher) at 4× magnification.
Consider `C[C@H](NC(=O)c1c(N)nn2cccnc12)c1cc2cccc(C#Cc3cnn(C)c3)c2c(=O)n1-c1ccccc1` [IPI-549], for which the “inhibition of 3D MCTs growth” value was “limited inhibition of 3D MCTs growth”.

As to `CC(=O)O[C@H]1C(=O)[C@@]2(C)[C@H]([C@H](OC(=O)c3ccccc3)[C@]3(O)C[C@H](OC(=O)[C@H](O)[C@@H](NC(=O)c4ccccc4)c4ccccc4)C(C)=C1C3(C)C)[C@]1(OC(C)=O)CO[C@@H]1C[C@@H]2O` [PTX, paclitaxel], the “inhibition of 3D MCTs growth” value is “limited inhibition of 3D MCTs growth”. The result for `COc1cccc2c1C(=O)c1c(O)c3c(c(O)c1C2=O)C[C@@](O)(C(=O)CO)C[C@@H]3O[C@H]1C[C@H](N)[C@H](O)[C@H](C)O1` [doxorubicin] reads “limited inhibition of 3D MCTs growth”; that for `Nc1ccn([C@@H]2O[C@H](CO)[C@@H](O)C2(F)F)c(=O)n1` [gemcitabine], “limited inhibition of 3D MCTs growth”.
